According to ChEMBL document CHEMBL1154431, “Synthesis of biologically active N-methyl derivatives of amidines and cyclized five-membered products of amidines with oxalyl chloride” (2008):

How the values were obtained:
Assay type in all cases: functional
Rattus norvegicus [1] = assay: Antiinflammatory activity against carrageenan-induced paw edema in albino rat at 25 mg/kg, po administered 30 mins before carrageenan challenge measured after 1 to 3 hrs
Rattus norvegicus [2] = assay: Antiinflammatory activity against carrageenan-induced paw edema in albino rat at 50 mg/kg, po administered 30 mins before carrageenan challenge measured after 1 to 3 hrs
Mus musculus [3] = assay: Analgesic activity in mouse assessed as decrease in acetic acid-induced writhing at 25 mg/kg, po administered 30 mins before acetic acid challenge measured after 1 hr; design: scale not given: the % may be the effect or the level left
Mus musculus [4] = assay: Analgesic activity in mouse assessed as decrease in acetic acid-induced writhing at 100 mg/kg, po administered 30 mins before acetic acid challenge measured after 1 hr; design: scale not given: the % may be the effect or the level left
Rattus norvegicus [5] = assay: Antiinflammatory activity against carrageenan-induced paw edema in albino rat at 100 mg/kg, po administered 30 mins before carrageenan challenge measured after 1 to 3 hrs
Mus musculus [6] = assay: Analgesic activity in mouse assessed as decrease in acetic acid-induced writhing at 50 mg/kg, po administered 30 mins before acetic acid challenge measured after 1 hr; design: scale not given: the % may be the effect or the level left

CCCCC1C(=O)N(c2ccccc2)N(c2ccccc2)C1=O [PHENYLBUTAZONE]
Activity (Rattus norvegicus [1]): 19%
Activity (Rattus norvegicus [2]): 37%
Activity (Mus musculus [3]): 24%
Activity (Mus musculus [4]): 58%
Activity (Rattus norvegicus [5]): 58%
Activity (Mus musculus [6]): 40%

O=C1N=C(c2ccncc2)N(NS(=O)(=O)c2ccccc2)C1=O
Activity (Rattus norvegicus [2]): 37%
Activity (Mus musculus [6]): 60%

COc1ccc(S(=O)(=O)NN2C(=O)C(=O)N=C2c2ccncc2)cc1
Activity (Mus musculus [4]): 75%
Activity (Rattus norvegicus [5]): 34%

C/N=C(/NNS(=O)(=O)c1ccc(OC)cc1)c1cnccn1
Activity (Rattus norvegicus [2]): 20%
Activity (Mus musculus [6]): 16%

O=C1N=C(c2cnccn2)N(NS(=O)(=O)c2ccccc2)C1=O
Activity (Rattus norvegicus [2]): 25%
Activity (Mus musculus [6]): 30%

C/N=C(/NNS(=O)(=O)c1ccc(OC)cc1)c1ccccn1
Activity (Rattus norvegicus [2]): 20%
Activity (Mus musculus [6]): 20%

C/N=C(/NNS(=O)(=O)c1ccccc1)c1ccncc1
Activity (Rattus norvegicus [2]): 16%
Activity (Mus musculus [6]): 7%

COc1ccc(S(=O)(=O)NN2C(=O)C(=O)N=C2c2cnccn2)cc1
Activity (Rattus norvegicus [2]): 13%
Activity (Mus musculus [6]): 12%

Cc1ccc(S(=O)(=O)NN2C(=O)C(=O)N=C2c2ccccn2)cc1
Activity (Rattus norvegicus [2]): 31%
Activity (Mus musculus [6]): 60%

COc1ccc(S(=O)(=O)NN2C(=O)C(=O)N=C2c2ccccn2)cc1
Activity (Rattus norvegicus [2]): 20%
Activity (Mus musculus [6]): 18%

C/N=C(/NNS(=O)(=O)c1ccccc1)c1cnccn1
Activity (Rattus norvegicus [2]): 11%
Activity (Mus musculus [6]): 11%

C/N=C(/NNS(=O)(=O)c1ccc(C)cc1)c1ccncc1
Activity (Rattus norvegicus [1]): 27%
Activity (Rattus norvegicus [2]): 44%
Activity (Mus musculus [3]): 9%
Activity (Mus musculus [4]): 33%
Activity (Rattus norvegicus [5]): 56%
Activity (Mus musculus [6]): 17%

C/N=C(/NNS(=O)(=O)c1ccc(OC)cc1)c1ccncc1
Activity (Rattus norvegicus [2]): 21%
Activity (Mus musculus [6]): 13%

C/N=C(/NNS(=O)(=O)c1ccc(C)cc1)c1ccccn1
Activity (Mus musculus [4]): 75%
Activity (Rattus norvegicus [5]): 12%
